According to the NIST ThermoML archive (doi:10.1016/j.jct.2016.04.014):

Settings: Liquid, Vibrating tube method

CCCCCCC [heptane]
Settings | mass density [kg/m3]
288.15 K, 100 kPa | 688.4
288.15 K, 101 kPa | 688.33
288.15 K, 1000 kPa | 689.2
288.15 K, 5000 kPa | 692.5
288.15 K, 10000 kPa | 696.5
288.15 K, 15000 kPa | 700.4
288.15 K, 20000 kPa | 704.1
288.15 K, 25000 kPa | 707.7
288.15 K, 30000 kPa | 711.1
288.15 K, 35000 kPa | 714.3
288.15 K, 40000 kPa | 717.4
288.15 K, 45000 kPa | 720.3
288.15 K, 50000 kPa | 723.1
288.15 K, 55000 kPa | 725.8
288.15 K, 60000 kPa | 728.2
293.15 K, 100 kPa | 684.2
293.15 K, 101 kPa | 684.11
293.15 K, 1000 kPa | 685
293.15 K, 5000 kPa | 688.4
293.15 K, 10000 kPa | 692.6
293.15 K, 15000 kPa | 696.5
293.15 K, 20000 kPa | 700.4
293.15 K, 25000 kPa | 704
293.15 K, 30000 kPa | 707.5
293.15 K, 35000 kPa | 710.9
293.15 K, 40000 kPa | 714
293.15 K, 45000 kPa | 717
293.15 K, 50000 kPa | 719.9
293.15 K, 55000 kPa | 722.5
293.15 K, 60000 kPa | 725.1
298.15 K, 100 kPa | 679.9
298.15 K, 101 kPa | 679.87
298.15 K, 1000 kPa | 680.7
298.15 K, 5000 kPa | 684.3
298.15 K, 10000 kPa | 688.6
298.15 K, 15000 kPa | 692.7
298.15 K, 20000 kPa | 696.6
298.15 K, 25000 kPa | 700.4
298.15 K, 30000 kPa | 704
298.15 K, 35000 kPa | 707.4
298.15 K, 40000 kPa | 710.7
298.15 K, 45000 kPa | 713.8
298.15 K, 50000 kPa | 716.7
298.15 K, 55000 kPa | 719.4
298.15 K, 60000 kPa | 721.9
303.15 K, 100 kPa | 675.7
303.15 K, 101 kPa | 675.6
303.15 K, 1000 kPa | 676.5
303.15 K, 5000 kPa | 680.2
303.15 K, 10000 kPa | 684.6
303.15 K, 15000 kPa | 688.9
303.15 K, 20000 kPa | 693
303.15 K, 25000 kPa | 696.8
303.15 K, 30000 kPa | 700.5
303.15 K, 35000 kPa | 704
303.15 K, 40000 kPa | 707.4
303.15 K, 45000 kPa | 710.5
303.15 K, 50000 kPa | 713.5
303.15 K, 55000 kPa | 716.2
303.15 K, 60000 kPa | 718.8
308.15 K, 100 kPa | 671.4
308.15 K, 101 kPa | 671.31
308.15 K, 1000 kPa | 672.2
308.15 K, 5000 kPa | 676
308.15 K, 10000 kPa | 680.6
308.15 K, 15000 kPa | 685
308.15 K, 20000 kPa | 689.2
308.15 K, 25000 kPa | 693.2
308.15 K, 30000 kPa | 697
308.15 K, 35000 kPa | 700.6
308.15 K, 40000 kPa | 704
308.15 K, 45000 kPa | 707.2
308.15 K, 50000 kPa | 710.3
308.15 K, 55000 kPa | 713.1
308.15 K, 60000 kPa | 715.7
313.15 K, 100 kPa | 667.1
313.15 K, 101 kPa | 667
313.15 K, 1000 kPa | 668
313.15 K, 5000 kPa | 672
313.15 K, 10000 kPa | 676.7
313.15 K, 15000 kPa | 681.2
313.15 K, 20000 kPa | 685.5
313.15 K, 25000 kPa | 689.6
313.15 K, 30000 kPa | 693.5
313.15 K, 35000 kPa | 697.2
313.15 K, 40000 kPa | 700.7
313.15 K, 45000 kPa | 704
313.15 K, 50000 kPa | 707.1
313.15 K, 55000 kPa | 709.9
313.15 K, 60000 kPa | 712.6
318.15 K, 100 kPa | 662.7
318.15 K, 1000 kPa | 663.6
318.15 K, 5000 kPa | 667.7
318.15 K, 10000 kPa | 672.6
318.15 K, 15000 kPa | 677.3
318.15 K, 20000 kPa | 681.8
318.15 K, 25000 kPa | 686
318.15 K, 30000 kPa | 690
318.15 K, 35000 kPa | 693.8
318.15 K, 40000 kPa | 697.4
318.15 K, 45000 kPa | 700.7
318.15 K, 50000 kPa | 703.9
318.15 K, 55000 kPa | 706.8
318.15 K, 60000 kPa | 709.5
323.15 K, 100 kPa | 658.3
323.15 K, 1000 kPa | 659.3
323.15 K, 5000 kPa | 663.5
323.15 K, 10000 kPa | 668.6
323.15 K, 15000 kPa | 673.4
323.15 K, 20000 kPa | 678
323.15 K, 25000 kPa | 682.4
323.15 K, 30000 kPa | 686.5
323.15 K, 35000 kPa | 690.4
323.15 K, 40000 kPa | 694.1
323.15 K, 45000 kPa | 697.5
323.15 K, 50000 kPa | 700.7
323.15 K, 55000 kPa | 703.7
323.15 K, 60000 kPa | 706.4
328.15 K, 100 kPa | 653.9
328.15 K, 1000 kPa | 654.9
328.15 K, 5000 kPa | 659.3
328.15 K, 10000 kPa | 664.5
328.15 K, 15000 kPa | 669.5
328.15 K, 20000 kPa | 674.3
328.15 K, 25000 kPa | 678.8
328.15 K, 30000 kPa | 683
328.15 K, 35000 kPa | 687
328.15 K, 40000 kPa | 690.8
328.15 K, 45000 kPa | 694.3
328.15 K, 50000 kPa | 697.6
328.15 K, 55000 kPa | 700.6
328.15 K, 60000 kPa | 703.3
333.15 K, 100 kPa | 649.5
333.15 K, 1000 kPa | 650.6
333.15 K, 5000 kPa | 655.1
333.15 K, 10000 kPa | 660.5
333.15 K, 15000 kPa | 665.7
333.15 K, 20000 kPa | 670.6
333.15 K, 25000 kPa | 675.2
333.15 K, 30000 kPa | 679.6
333.15 K, 35000 kPa | 683.7
333.15 K, 40000 kPa | 687.5
333.15 K, 45000 kPa | 691.1
333.15 K, 50000 kPa | 694.4
333.15 K, 55000 kPa | 697.4
333.15 K, 60000 kPa | 700.2
343.15 K, 100 kPa | 640.5
343.15 K, 1000 kPa | 641.6
343.15 K, 5000 kPa | 646.5
343.15 K, 10000 kPa | 652.3
343.15 K, 15000 kPa | 657.8
343.15 K, 20000 kPa | 663.1
343.15 K, 25000 kPa | 668
343.15 K, 30000 kPa | 672.6
343.15 K, 35000 kPa | 676.9
343.15 K, 40000 kPa | 681
343.15 K, 45000 kPa | 684.7
343.15 K, 50000 kPa | 688.1
343.15 K, 55000 kPa | 691.3
343.15 K, 60000 kPa | 694.1
353.15 K, 100 kPa | 631.3
353.15 K, 1000 kPa | 632.5
353.15 K, 5000 kPa | 637.8
353.15 K, 10000 kPa | 644
353.15 K, 15000 kPa | 649.9
353.15 K, 20000 kPa | 655.5
353.15 K, 25000 kPa | 660.7
353.15 K, 30000 kPa | 665.6
353.15 K, 35000 kPa | 670.2
353.15 K, 40000 kPa | 674.4
353.15 K, 45000 kPa | 678.3
353.15 K, 50000 kPa | 681.9
353.15 K, 55000 kPa | 685.1
353.15 K, 60000 kPa | 688
363.15 K, 100 kPa | 621.9
363.15 K, 1000 kPa | 623.2
363.15 K, 5000 kPa | 628.9
363.15 K, 10000 kPa | 635.6
363.15 K, 15000 kPa | 641.9
363.15 K, 20000 kPa | 647.9
363.15 K, 25000 kPa | 653.4
363.15 K, 30000 kPa | 658.6
363.15 K, 35000 kPa | 663.5
363.15 K, 40000 kPa | 667.9
363.15 K, 45000 kPa | 672
363.15 K, 50000 kPa | 675.7
363.15 K, 55000 kPa | 679
363.15 K, 60000 kPa | 681.9
373.15 K, 1000 kPa | 614.2
373.15 K, 5000 kPa | 620.2
373.15 K, 10000 kPa | 627.4
373.15 K, 15000 kPa | 634.1
373.15 K, 20000 kPa | 640.4
373.15 K, 25000 kPa | 646.3
373.15 K, 30000 kPa | 651.8
373.15 K, 35000 kPa | 656.9
373.15 K, 40000 kPa | 661.5
373.15 K, 45000 kPa | 665.8
373.15 K, 50000 kPa | 669.6
373.15 K, 55000 kPa | 673.1
373.15 K, 60000 kPa | 676.1
393.15 K, 1000 kPa | 594.6
393.15 K, 5000 kPa | 601.7
393.15 K, 10000 kPa | 610
393.15 K, 15000 kPa | 617.8
393.15 K, 20000 kPa | 625
393.15 K, 25000 kPa | 631.7
393.15 K, 30000 kPa | 637.9
393.15 K, 35000 kPa | 643.6
393.15 K, 40000 kPa | 648.7
393.15 K, 45000 kPa | 653.3
393.15 K, 50000 kPa | 657.4
393.15 K, 55000 kPa | 660.9
393.15 K, 60000 kPa | 663.9
413.15 K, 1000 kPa | 574.1
413.15 K, 5000 kPa | 582.3
413.15 K, 10000 kPa | 592
413.15 K, 15000 kPa | 600.9
413.15 K, 20000 kPa | 609.2
413.15 K, 25000 kPa | 616.9
413.15 K, 30000 kPa | 623.9
413.15 K, 35000 kPa | 630.2
413.15 K, 40000 kPa | 635.9
413.15 K, 45000 kPa | 640.9
413.15 K, 50000 kPa | 645.2
413.15 K, 55000 kPa | 648.9
413.15 K, 60000 kPa | 651.9
